| Structure (SMILES) | melting point |
| --- | --- |
| Cn1cc2c3c(c(Cl)cc2n1)CCC3=CC#N | 224 to 226 °C |
| CC(C)c1cc(S(N)(=O)=O)c(C(C)C)cc1C(F)(F)F | 171 to 174 °C |
| O=C(O)c1cn(-c2ccc(F)cc2F)c2cc(Cl)c(F)cc2c1=O | 90 to 92 °C |
| O=C1N=NC(=O)c2c1[nH]c1cc(C(F)(F)F)ccc21 | 291 to 293 °C |
| CC(=O)c1c(O)cccc1OCC(O)COc1cc(C)ccc1C (configuration not stated) | 104 to 106 °C |
| N#CCCN1CCC(c2noc3cc(F)ccc23)CC1 | 100 to 101 °C |
| COC(=O)c1ccc(CN2CCN(c3nc(C)c(C(C)=O)s3)C2=O)cc1 | 174 to 175 °C |
| C[C@@H]1Cc2ccsc2[C@H](c2ccccc2)N1CCNS(=O)(=O)c1ccc(N)cc1 (relative stereo) | 184 to 186 °C |
| O=CNC(C(=O)O)c1ccccc1 (configuration not stated) | 170 to 175 °C |
| O=c1cc(CCCCBr)c2ccccc2[nH]1 | 156 to 158 °C |
| O=C(NC(=O)N1C(=O)Cc2ccccc21)c1ccccc1 | 184 °C |
| CS(=O)(=O)c1ccc(-c2oc(CCC(=O)O)nc2-c2ccc(F)cc2)cc1 | 197 to 198 °C |
| COc1ccc(C(=O)O)cc1NC(=O)[C@H](CCCNC(=N)N[N+](=O)[O-])NC(=O)OCc1ccccc1 | 208 to 209 °C |
| Oc1ccc2nc(-c3cccc(Br)c3)oc2c1 | 248 °C |
| Cc1ccc(NC(=O)NCc2cccc3c2C(=O)N(C2CCC(=O)NC2=O)C3=O)cc1Cl (configuration not stated) | 238 to 240 °C |
| CCC(=O)c1ccc(C#C[Si](C)(C)C)cc1 | 36 to 37 °C |
| COC(=O)c1nc(C)c(-c2ccncc2C)s1 | 95.5 to 96.3 °C |
| COc1cc(OC)cc(-c2ncoc2-c2ccc(OC)c(O)c2F)c1 | 168 to 172 °C |
| Cc1oc(-c2ccccc2)nc1COc1ccc(CON2C(=O)c3ccccc3C2=O)cc1 | 155 to 156 °C |
| CC(C)(O)CCOc1c(-c2ccc(S(C)(=O)=O)cc2)cnn(-c2ccc(F)cc2)c1=O | 133 to 134 °C |
| O=c1[nH]c2c(F)cc([N+](=O)[O-])cc2o1 | 177 to 179 °C |
| O=C1N(Cc2cnc(Cl)s2)c2ccccc2C12COc1cc3c(cc12)OCO3 (configuration not stated) | 195 to 198 °C |
| CCn1c(=O)c2c(nc(C=Cc3cc(OC)ccc3S(=O)(=O)O)n2C)n(CC)c1=O | 209 to 210 °C |
| Cc1ccnc(-c2ccc([N+](=O)[O-])cc2)c1 | 145 to 147 °C |
| COC(=O)C1CC2c3cccc4c3C(CN4)CC2N(C)C1 (configuration not stated) | 110 to 120 °C |
| N#CN1CCC2(CC1)CN(c1ccc(Cl)cc1)c1ccccc12 | 178 to 180 °C |

| Structure (SMILES) | melting point |
| --- | --- |
| Cc1cccc(-c2c(Cl)ccc3c2C=C(C(=O)O)C(C(F)(F)F)O3)c1 (configuration not stated) | 222 to 224 °C |
| CCOC(=O)CCc1cc2c(c(Br)c1Br)OCC2 | 42 to 43 °C |
| Cc1cccc(NC(c2ccc(OC(C)C)cc2)c2ccc3cccnc3c2O)n1 (configuration not stated) | 132 to 134 °C |
| CCCCCCC(=O)C=Cc1ccc(OC(C)=O)c(OC(C)=O)c1 | 71 to 72 °C |
| CC(C)Sc1cn(C)cc(-c2cccc(C(F)(F)F)c2)c1=O | 93 to 94 °C |
| CC(=O)Oc1cc(C(=O)N2CCC(C(=O)C3CCCCC3)CC2)c([N+](=O)[O-])cc1OC(C)=O | 160 to 165 °C |
| Cc1nc2scc(C)n2c1S(N)(=O)=O | 177 to 178 °C |
| O=C(NC(=O)N(Sc1ccccc1[N+](=O)[O-])c1ccc(Cl)cc1)c1c(F)cccc1F | 176 to 178 °C |
| CCCCCCCCNC(=O)Oc1ccc(Oc2ccccc2)cc1 | 44 to 46 °C |
| CCCN(CCC)S(=O)(=O)c1cc(-c2csc(=Nc3cc(Cl)c(OC)cc3OC)n2C)ccc1Cl | 173 to 175 °C |
| CCOP(=O)(OCC)C(Nc1nccs1)P(=O)(OCC)OCC | 103 to 104 °C |
| Cc1cc(C)c2nc(NCCC(N)=O)n(Cc3nc(C)ccc3O)c2c1 | 229 °C |
| NCc1ccc2cc(O)ccc2c1 | 188 to 192 °C |
| CCOC(=O)CCn1ccn(C2CCc3ccccc3C2)c1=S (configuration not stated) | 71 to 73 °C |
| CC1(C)C=C(c2c[nH]c(-c3ccc(F)cc3)c2-c2ccncc2)CC(C)(C)N1 | 258 to 259 °C |
| CCOC(=O)C=CN1C(C)(C)CC(N(C=O)CCCCCCN(C=O)C2CC(C)(C)N(C=CC(=O)OCC)C(C)(C)C2)CC1(C)C | 172 °C |
| Cc1cc(-c2[nH]c3ccc(N)cc3c2C)cc(C)c1O | 184 to 185 °C |
| CN(C)C(=O)CC(c1ccc(OC(F)F)c(OCC2CC2)c1)N1Cc2cccc(N)c2C1=O (configuration not stated) | 70 to 72 °C |
| Cc1cccc(S(=O)(=O)N2CCn3c(c(C(N)=O)c(Cl)c3-c3ccccc3)C2)c1 | 165 to 167 °C |
| CCc1cc(C)c2c(n1)-c1ccccc1C2=O | 68 to 70 °C |
| COc1c(OS(C)(=O)=O)ccc2[nH]ncc12 | 130 to 131 °C |
| COc1cccc(C(=O)O)c1OCc1nc(-c2ccco2)oc1C | 198 to 199 °C |
| CCN(CC)CCn1c(Cl)c(C(=O)NC)c2ccccc21 | 103 to 104 °C |
| CC(=O)c1ccc(C(=O)CCl)s1 | 94 to 95 °C |
| Cc1c(F)c(F)cc2c(=O)c(C(=O)O)cn(-c3ccc(F)c(O)c3)c12 | > 280 °C |
| CCOC(=O)C1=CC2(CCC1S(=O)(=O)Nc1ccc(F)cc1Cl)OCCS2 (configuration not stated) | 133 to 134 °C |

| Structure (SMILES) | melting point |
| --- | --- |
| COc1cc(OC)c2c(=O)[nH]c(-c3cc(-c4ccc(S(C)=O)cc4)cs3)nc2c1 (configuration not stated) | > 300 °C |
| CCOC(=O)C(O)=CC=C(SC)C(=O)c1ccc(N2CCCCC2)cc1 | 65 °C |
| Cc1cc(-n2cncn2)c2cccc(OCc3c(Cl)ccc(S(=O)(=O)N4CCC[C@H]4C(=O)NCC4CCN(CCOCCO)CC4)c3Cl)c2n1 | 82 °C |
| CCc1ccc(COc2cccc3c2CN(C2CCC(=O)NC2=O)C3=O)cc1 (configuration not stated) | 158 to 160 °C |
| CCOC(=O)CN1C(=O)COc2c(Cl)nc(C)nc21 | 69 to 70 °C |
| CN(C)S(=O)(=O)c1ccc2c(c1)S(=O)(=O)NC(C1CCCCC1)N2 (configuration not stated) | 243 to 245 °C |
| COc1cc(F)ccc1-c1c(/C=C/C(=O)O)c2ccccc2c(=O)n1C(C)C | 265 to 267 °C |
| O=C(Nc1cc(Cl)c(F)cc1-c1ccccc1)c1cccnc1Cl | 131 to 136 °C |
| CC(C)=CC(n1cncn1)C(C)(O)C(C)(C)C (configuration not stated) | 115 to 116 °C |
| ClC(Cl)=Cc1ccc(OCc2ccccc2)cc1 | 74.5 to 76.5 °C |
| CCCCc1nn(-c2ccccc2C(F)(F)F)c(=O)[nH]1 | 124 to 126 °C |
| OCc1cc(Nc2nc(-c3ccccc3)nc3ccccc23)[nH]n1 | 238 to 239 °C |
| CC(C)c1nc(Sc2ccc(CCC(=O)O)cc2)c(C(=O)O)n1Cc1cc2c(cc1Cl)OCO2 | 198 °C |
| Cc1ccc(S(=O)(=O)NCCc2ccc(C(=O)CN3CCN(c4ccncc4)CC3)cc2)cc1 | 133 to 135 °C |
| COc1cc2c(cc1O)CCN(S(=O)(=O)c1ccccc1OC)C2 | 140 to 142 °C |
| CCCCc1c[nH]cn1 | 42 to 45 °C |
| COC(=O)c1ccc(OCCCCCOc2ccc(C(=O)OC)cc2)cc1 | 93 to 95 °C |
| CC(=O)Nc1ccc(I)cc1C | 182 to 183 °C |
| CC(=O)Oc1ccc2c(c1)Oc1ccccc1C2=C1C2CC3CC(C2)CC1C3 | 162 to 163 °C |
| COC(=O)c1nn(-c2ccc(Cl)cc2Cl)c(-c2ccc(Cl)cc2)c1C | 133 °C |
| COC(=O)c1ccc(C(=O)O)c(NC(=O)C(F)(F)F)c1 | 185 to 186 °C |
| CS(=O)(=O)c1ccc(N2CCc3[nH]c4c(cnc5cc(Cl)ccc54)c3C2)cc1 | > 250 °C |
| [N-]=[N+]=NCc1cc(Cl)c(C(=O)c2ccc(Cl)cc2)c(Cl)c1 | 50 to 55 °C |
| N#CC1(C(C(=O)O)C(=O)O)CCCCC1 | 99.9 °C |
| CC(C)(C)c1nc2cc(N3CCSCC3)c(N)cc2s1 | 170 to 175 °C |
| CC(C)(C)OC(=O)N1CCc2c(cc(O)c(O)c2F)C(c2ccc(O)cc2)C1 (configuration not stated) | 100 to 105 °C |

| Structure (SMILES) | melting point |
| --- | --- |
| CNS(=O)(=O)c1ccc(NN=C2C(=O)Nc3ccc4ncsc4c32)cc1 | > 260 °C |
| COC(=O)c1ccc(-c2nnc(-c3ccccc3)o2)cc1 | 172 to 173 °C |
| C[C@H]1C[C@@](O)(c2cccc(Sc3ccc4c(c3)CCC(=O)N4)c2)CCO1 | 180 to 181 °C |
| CCOC(=O)c1ccc(-c2ccc(C=O)cc2)cc1 | 57 to 59 °C |
| CC1=C(C#CC(C)C=CO)C(C)(C)CCC1=O (configuration not stated) | 102 to 105 °C |
| CCCC(=O)Nc1n[nH]c2cc(-c3ccc([N+](=O)[O-])cc3)ccc12 | 250 °C |
| CC(C)(OCc1cc2nc(Cl)ccc2n1S(=O)(=O)c1cccc(Cl)c1Cl)C(=O)O | 174 °C |
| O=c1c(-c2n[nH]c3ccccc23)coc2ccccc12 | 159 to 160 °C |
| COCCCNS(=O)(=O)NC(=O)/C(C)=C/c1ccc(OC(C)C)cc1Oc1ncc(C(F)(F)F)cc1Cl | 120 to 121 °C |
| CCCCN(CC(=O)O)S(=O)(=O)c1ccc(N2CCC(NC[C@H](O)c3ccc(O)c(NS(C)(=O)=O)c3)CC2)cc1 | 125 to 138 °C |
| c1ccc(C23CC(C2)C3)cc1 | 64 to 65 °C |
| OCc1cn(-c2ccc3ncccc3c2)cn1 | 183 to 187 °C |
| O=c1cc(-c2cc[nH]n2)oc2ccccc12 | 143 to 144 °C |
| O=c1[nH]c2ccccc2n2ccnc12 | > 300 °C |
| CCCNC(=O)Cc1cnc2cccc(C)n2c1=O | 96 to 98 °C |
| O=C(CCc1cccnc1)NC(Cc1c[nH]c2ccccc12)C(=O)CCc1cc(C(F)(F)F)cc(C(F)(F)F)c1 (configuration not stated) | 123 to 124 °C |
| CCCC(=O)C1=C(O)CC(c2cccnc2)CC1=O (configuration not stated) | 72 °C |
| CC(C)c1cc(C(C)C)c(-c2csc(Br)n2)c(C(C)C)c1 | 236 °C |
| CC(C)(O)CC(O)c1cccc(OCc2ccc3ccccc3n2)c1 (configuration not stated) | 117 to 124 °C |
| COCc1ccc(Oc2cc(OC(C)C)c3[nH]c(C4=NCC(CC(=O)NC5CC5)S4)cc3c2)cn1 (configuration not stated) | 100 to 101 °C |
| CC(C)(C)OC(=O)N1CCC[C@H](COc2cccnc2Br)C1 | 79 to 81 °C |
| CNC(=NC#N)NCCSCc1csc(NC(N)=NC(=O)c2ccccc2)n1 | 179 to 181 °C |
| COC(=O)c1ccc2cc(-c3ccc(CO)c(C45CC6CC(CC(C6)C4)C5)c3)ccc2c1 | 212 °C |
| COc1cc(N)c(Cl)cc1C(=O)NCC1CCC(C)N1Cc1ccccc1 (configuration not stated) | 136 to 137 °C |

From a melting point compilation (Tetko et al.; mined from patent text by program, amines drawn as free bases though some values may be those of a salt)
